Where two headings read alike, the source gives them in different places.
Tests used:
[1] = Rate of dissolution of the substance, 75 mg in 50 ml 0.1 M HCl; assay type: physicochemical
[2] = Solubility of crystalline forms of losartan potassium
[3] = for Loss of weight: ~10 mBar
Method: The sample was exposed to temperatures between 60° C. and 80° C. and negative pressure ˜10 mBar.

[4] = Stability test, amorphous versus form with bound water, 4 days in air at 60/80° C., dry or moist; assay type: physicochemical; details: for Physical form when exposed to moisture: 4 days
Method: For evaluation and comparison, respectively, of the stability, four tests were conducted.

[5] = Dynamic vapour sorption (DVS); assay type: physicochemical
Method: Measurements were performed on instrument DVS—The Sorption Solution, Surface Measurement Systems Ltd. UK.
The principle of measurement is as follows: The sample measured is placed on one side of a very precise scale, a reference non-hydroscopic sample having been placed on the other side. The scale is located in an isolated chamber in which the relative humidity can be set. The hydroscopic sample being measured binds moisture from the environment, and an increase of mass is detected.
The ordinate axis represents the change of mass, abscise representing the humidity.

[6] = 10 g exposed to heat while dried
Method: Temperature stability of the sample of polymorph Form Y was tested by exposing 10 g polymorph Form Y potassium salt of -n-butyl-4-chloro-5-hydroxymethyl-1-[[2′-(1H-tetrazol-5-yl)[1,1′-biphenyl]-4-yl]methyl]-1H-imidazole to heat while dried.

For CCCCc1nc(Cl)c(CO)n1Cc1ccc(-c2ccccc2-c2nn[nH]n2)cc1 [Form I, losartan potassium, reference compound], the “RATE OF DISSOLUTION” value [1] was 16 min, the solubility ([2]; 0.1 M HCl, simulated gastric fluid) was 1.52 mg/mL and the solubility ([2]; water) was 630 mg/mL.
For CCCCc1nc(Cl)c(CO)n1Cc1ccc(-c2ccccc2-c2nnn[n-]2)cc1.[K+] [LST-K-1481, potassium salt of 2-n-butyl-4-chloro-5-hydroxymethyl-1-[[2′-(1H-tetrazol-5-yl)[1,1′-biphenyl]-4-yl]methyl]-1H-imidazole], the “RATE OF DISSOLUTION” value [1] was 14 min and the “SOLUBILITY in 0.1 M HCl” value ([2]; in 0.1 M HCl) was 1.74 mg/mL.
With CCCCc1nc(Cl)c(CO)n1Cc1ccc(-c2ccccc2-c2nnn[n-]2)cc1.[K+] [LST-K-1496/1, potassium salt of 2-n-butyl-4-chloro-5-hydroxymethyl-1-[[2′-(1H-tetrazol-5-yl)[1,1′-biphenyl]-4-yl]methyl]-1H-imidazole] the “RATE OF DISSOLUTION” value [1] was 13 min.
For CCCCc1nc(Cl)c(CO)n1Cc1ccc(-c2ccccc2-c2nnn[n-]2)cc1.[K+] [LST-K-3279, potassium salt of 2-n-butyl-4-chloro-5-hydroxymethyl-1-[[2′-(1H-tetrazol-5-yl)[1,1′-biphenyl]-4-yl]methyl]-1H-imidazole], the “Polymorphic form after storage” value ([3]; 45-day storage in a closed flask at room temperature) was “did not change its polymorphic forms”, the Loss of weight ([3]; 60° C.) was 0.79% and the Loss of weight ([3]; 80° C.) was 0.90%. For the same compound, the “Crystalline structure after heat and negative pressure” value ([3]; between 60° C. and 80° C., negative pressure ~10 mBar) was “did not change under any of the conditions”.
With CCCCc1nc(Cl)c(CO)n1Cc1ccc(-c2ccccc2-c2nn[nH]n2)cc1 [Milled sample of Form I, losartan potassium, reference compound] the “RATE OF DISSOLUTION” value [1] was 8 min.
With CCCCc1nc(Cl)c(CO)n1Cc1ccc(-c2ccccc2-c2nn[nH]n2)cc1 [amorphous losartan potassium, losartan potassium] the “Hygroscopicity (comparison)” value [4] was “essentially more hygroscopic than the form with bound water of losartan potassium”, the “Physical form when exposed to moisture” value [4] was “merged into a glassy mass and then white crystals of form with bound water were formed” and the “Water content at repeated sorption, at which point the amorphous sample crystallizes” value ([5]; at 60% relative humidity) was “approximately 13%”. The Weight increase ([5]; at 70-80% relative humidity) was 20-26% and the “Absorption of water (increase of mass)” value ([5]; at 80% relative humidity, first sorption) was 25%.
With CCCCc1nc(Cl)c(CO)n1Cc1ccc(-c2ccccc2-c2nnn[n-]2)cc1.[K+] [crystalline form with bound water, losartan potassium] the “Stability to temperature and moisture” value ([4]; 4 days in air, 60° C. or 80° C., dry atmosphere or moisture) was “at least as stable as amorphous”, the “Physical form when exposed to moisture” value [4] was “maintained the powdered form” and the “Content of water in sample after crystallization” value ([5]; after crystallization at 80% relative humidity) was “approximately 13%”. For the same compound, the “Relative humidity at which bound water is lost and the sample transforms into amorphous form” value ([5]; decreasing relative humidity) was “below 20%” and the “Solubility (comparison in words)” value ([2]; in water) was “less soluble than known Form I, or amorphous losartan potassium”.
For CCCCc1nc(Cl)c(CO)n1Cc1ccc(-c2ccccc2-c2nnn[n-]2)cc1.[K+] [polymorph Form Y, potassium salt of 2-n-butyl-4-chloro-5-hydroxymethyl-1-[[2′-(1H-tetrazol-5-yl)[1.1′-biphenyl]-4-yl]methyl]-1H-imidazole], the “Polymorph form after exposure to heat while dried” value [6] was “Polymorph Form X was obtained”.

Source: patent US20060004207A1, “Preparation of new pharmaceutically suitable salt of losartan and forms thereof with new purification and isolation methods” (priority 2003, published 2006)
